In patent US20110046105A1, “Heterocycle-substituted imidazolidine-2,4-diones, process for preparation thereof, medicaments comprising them and use thereof” (SANOFI-AVENTIS, priority 2008, published 2011):

Key:
[1] = biological target: T1, cannabinoid CB1 receptor (CB1) (Mus musculus, UniProt P47746); assay: Antagonization of CB1-mediated hypothermia; assay type: in vivo; settings: female NMRI mice; 1.25 mg/kg intraperitoneally; within 30 min
T1 construct: from tissue; host or cells: whole animal (female NMRI mice)
T1 sequence (P47746 whole entry): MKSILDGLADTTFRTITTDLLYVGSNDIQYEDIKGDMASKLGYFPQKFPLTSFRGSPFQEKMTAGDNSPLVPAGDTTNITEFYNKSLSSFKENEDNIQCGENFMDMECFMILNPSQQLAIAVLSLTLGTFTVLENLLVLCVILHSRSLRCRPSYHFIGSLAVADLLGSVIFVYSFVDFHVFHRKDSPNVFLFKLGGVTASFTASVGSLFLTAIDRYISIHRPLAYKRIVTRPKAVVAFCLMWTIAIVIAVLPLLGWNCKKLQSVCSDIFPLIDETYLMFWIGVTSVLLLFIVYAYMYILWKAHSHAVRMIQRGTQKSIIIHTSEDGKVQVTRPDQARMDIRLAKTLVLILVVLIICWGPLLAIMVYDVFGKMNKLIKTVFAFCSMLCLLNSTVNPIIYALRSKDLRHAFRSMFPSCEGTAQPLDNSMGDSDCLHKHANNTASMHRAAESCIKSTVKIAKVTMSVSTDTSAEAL
Method: The test is used to measure the potency of cannabinoid CB1 receptor (CB1) antagonists. What is measured is the extent to which the CB1 antagonists to be tested are capable of preventing or of antagonizing hypothermia induced by a CB1 agonist.
Female NMRI mice, 25-35 g in weight, are used. The mice are accustomed to the housing conditions for at least one week.
At time 0 min, the animals are treated orally, intravenously or intraperitoneally with the CB1 antagonist to be tested. 30 min later, the CB1 agonist CP55.940, 1.25 mg/kg, is administered to the mice intraperitoneally. This brings about a fall in the body temperature by 5-6° C. within 30 min. The body temperature is measured rectally for the first time 30 min before the test substance administration and then every 30 min after this administration, if appropriate immediately before a substance administration, over 4 hours.
The potency of the test substances is reported as the percentage decrease in the area under the temperature-time curve which is formed firstly by the average basal temperature, and secondly by the temperature-time curve, of the animals treated exclusively with the CB1 antagonist.

[2] = biological target: T2, hCB1R (Homo sapiens, UniProt P21554); assay: Binding to the CB1 receptor ([3H]-SR141716A displacement); set-up: expressed in transfected cells; host or cells: CHO-K1; settings: CHO-K1/cannabinoid CB1 protein; ligand [3H]-SR141716A 0.5 nM; Ki from IC50 by Cheng-Prusoff
T2 sequence (P21554 whole entry): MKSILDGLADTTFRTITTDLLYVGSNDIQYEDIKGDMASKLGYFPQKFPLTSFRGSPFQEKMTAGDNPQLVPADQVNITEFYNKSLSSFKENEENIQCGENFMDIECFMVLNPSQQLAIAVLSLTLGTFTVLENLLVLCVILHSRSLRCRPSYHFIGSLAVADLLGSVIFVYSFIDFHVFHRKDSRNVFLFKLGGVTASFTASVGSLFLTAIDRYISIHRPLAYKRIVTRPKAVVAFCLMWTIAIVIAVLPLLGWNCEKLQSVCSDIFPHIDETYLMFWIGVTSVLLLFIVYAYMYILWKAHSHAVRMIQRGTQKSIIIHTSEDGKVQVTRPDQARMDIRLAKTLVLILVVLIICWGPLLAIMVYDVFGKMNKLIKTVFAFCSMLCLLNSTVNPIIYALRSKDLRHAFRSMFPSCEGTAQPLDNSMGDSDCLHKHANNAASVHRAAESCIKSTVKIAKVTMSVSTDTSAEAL
Method: Test compounds: The compounds (3 μl, 10 mM, 100% DMSO), pipetted into 96-well PP microtiter plates, were diluted with 27 μl of 100% DMSO (dimethyl sulfoxide). Proceeding from this solution, further 3-fold dilution steps were undertaken by transferring 10 μl in each case to a new PP microtiter plate and adding a further 20 μl of 100% DMSO. In each case 6 μl of these solutions were transferred into new 96-well PP microtiter plates and made up with 144 μl of assay buffer. The end concentrations ranged from 10 μM to 0.005 μM.
Negative control: AM 251, dissolved in assay buffer with 1% DMSO, was added to the dilution series in the microtiter plates as a control. The end concentration was 1 μM.
Blank control: assay buffer with 1% DMSO was added to the dilution series of the microtiter plates as a blank control.
High control: ^3H binding without addition of the compound
Low control: ^3H binding in the presence of 1 μM AM 251
The values were calculated using the corrected raw data.
The values reported were obtained as average values of a double determination. The IC50 values were calculated from the measurements with the program Xlfit, formula 205. Ki values were obtained from the IC50 and Kd values utilizing the Cheng-Prusoff equation: […]
Literature: Cheng, Y.-C., and Prusoff, W. H. (1973) Biochem. Pharmacol 22, 3099-3108

[3] = biological target: T3, hCB2R (Homo sapiens, UniProt P34972); assay: In vitro functional assay with recombinant cells (FLIPR), cannabinoid 2 receptor; assay type: cell-based; settings: recombinant HEK293 cells expressing CB2 and G-protein Galpha16; intracellular Ca2+ change against reference agonist
T3 construct: expressed in transfected cells; host or cells: HEK293
T3 sequence (P34972 whole entry): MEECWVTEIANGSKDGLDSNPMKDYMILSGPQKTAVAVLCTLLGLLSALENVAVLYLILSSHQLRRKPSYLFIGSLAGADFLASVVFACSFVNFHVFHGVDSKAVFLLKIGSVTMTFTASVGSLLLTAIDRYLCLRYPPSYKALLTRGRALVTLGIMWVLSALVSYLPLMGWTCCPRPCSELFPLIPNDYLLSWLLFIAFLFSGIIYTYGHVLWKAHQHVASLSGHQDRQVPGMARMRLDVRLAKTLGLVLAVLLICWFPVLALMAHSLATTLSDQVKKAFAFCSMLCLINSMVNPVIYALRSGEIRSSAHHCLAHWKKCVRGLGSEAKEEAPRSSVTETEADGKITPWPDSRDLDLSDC
Method: (§1) Function-testing assays were performed by means of the FLIPR technique (“Fluorometric Imaging Plate Reader”, Molecular Devices Corp.).
(§2) To this end, ligand-induced changes in the intracellular concentration of Ca^2+ in recombinant HEK293 cells, which expressed both a cannabinoid receptor (CB1 or CB2) and G-protein Galpha16, were determined. For the studies, cells were sown into 96-well microtiter plates (60 000 cells/well) and left to grow overnight. The medium was removed and the cells were incubated in buffer which contained the fluorescent dye Fluo-4. After this loading with dye, the cells were washed, test substance was added dissolved in buffer, the mixture was incubated for 20 minutes, a known cannabinoid receptor agonist as a reference agonist was added in buffer and, finally, the changes in the intracellular Ca^2+ concentration were measured in the FLIPR unit.
Results were presented as the percentage change relative to the control (0%: analogous experiment without test substance and without reference agonist, i.e. only with buffer; 100%: analogous experiment without test substance, but with reference agonist in excess), and used to calculate dose/action curves, and IC50 values were determined. […]

[4] = biological target: T2, hCB1R; assay: In vitro functional assay with recombinant cells (FLIPR), cannabinoid 1 receptor; assay type: cell-based; set-up: expressed in transfected cells; host or cells: HEK293; settings: recombinant HEK293 cells expressing CB1 and G-protein Galpha16; intracellular Ca2+ change against reference agonist
Method: as §1, §2
Results were presented as the percentage change relative to the control (0%: analogous experiment without test substance and without reference agonist, i.e. only with buffer; 100%: analogous experiment without test substance, but with reference agonist in excess), and used to calculate dose/action curves, and IC50 values were determined.
The values of the functional assay compared to the cannabinoid 1 receptor including illustrative selectivities compared to the cannabinoid 2 receptor can be taken from table 1 which follows.

Row | SMILES | fall in the body temperature [1] | Ki [2] | IC50 [3] | IC50 [4]
1 | CCCCCCC(C)(C)c1ccc([C@@H]2C[C@H](O)CC[C@H]2CCCO)c(O)c1 [CP55.940] | 5-6 °C | – | – | –
2 | CC1(C)C(=O)N(c2ccc(C#N)c(C(F)(F)F)c2)C(=O)N1Cc1ccccc1Nc1ccc(CN2CCNCC2=O)cc1 [Example 1, 4-(4,4-dimethyl-2,5-dioxo-3-{2-[4-(2-oxopiperazin-1-ylmethyl)phenylamino]-benzyl}imidazolidin-1-yl)-2-trifluoromethylbenzonitrile] | – | 34 nM | – | –
3 | CC1(C)C(=O)N(c2ccc(F)c(C(F)(F)F)c2)C(=O)N1Cc1ccccc1Nc1ccc(-c2nnn[nH]2)cc1 [Example 2, 3-(4-fluoro-3-trifluoromethylphenyl)-5,5-dimethyl-1-{2-[4-(1H-tetrazol-5-yl)phenylamino]benzyl}imidazolidine-2,4-dione] | – | 108 nM | > 10000 nM | 205 nM
4 | CC1(C)C(=O)N(c2ccc(F)c(C(F)(F)F)c2)C(=O)N1Cc1ccc(F)cc1Nc1ccc(N2CCCC2=O)cc1 [Example 4, 1-{4-fluoro-2-[4-(2-oxopyrrolidin-1-yl)phenylamino]benzyl}-3-(4-fluoro-3-trifluoromethylphenyl)-5,5-dimethylimidazolidine-2,4-dione] | – | 103 nM | – | –
5 | CC1(C)C(=O)N(c2ccc(F)c(C(F)(F)F)c2)C(=O)N1Cc1ccc(F)cc1Nc1ccc(-n2cnc3ccccc32)cc1 [Example 5, 1-[2-(4-benzimidazol-1-ylphenylamino)-4-fluorobenzyl]-3-(4-fluoro-3-trifluoromethylphenyl)-5,5-dimethylimidazolidine-2,4-dione] | – | 4 nM | – | 6 nM
6 | COC(=O)C1CC(=O)N(c2ccc(Nc3cc(F)ccc3CN3C(=O)N(c4ccc(F)c(C(F)(F)F)c4)C(=O)C3(C)C)cc2)C1 (centres unmarked) [Example 6, methyl 1-(4-{5-fluoro-2-[3-(4-fluoro-3-trifluoromethylphenyl)-5,5-dimethyl-2,4-dioxoimidazolidin-1-ylmethyl]phenylamino}phenyl)-5-oxopyrrolidine-3-carboxylate] | – | 40 nM | – | –
7 | CCOc1ccc(Nc2ccc(Nc3cc(F)ccc3CN3C(=O)N(c4ccc(F)c(C(F)(F)F)c4)C(=O)C3(C)C)cc2)nn1 [Example 7, 1-{2-[4-(6-ethoxypyridazin-3-ylamino)phenylamino]-4-fluorobenzyl}-3-(4-fluoro-3-trifluoromethylphenyl)-5,5-dimethyl-imidazolidine-2,4-dione] | – | 18 nM | – | 32 nM
8 | COc1ccc(Nc2ccc(Nc3cc(F)ccc3CN3C(=O)N(c4ccc(F)c(C(F)(F)F)c4)C(=O)C3(C)C)cc2)nn1 [Example 8, {4-fluoro-2-[4-(6-methoxypyridazin-3-ylamino)phenylamino]benzyl}-3-(4-fluoro-3-trifluoro-methylphenyl)-5,5-dimethylimidazolidine-2,4-dione] | – | 10 nM | – | 24 nM
9 | CC1(C)C(=O)N(c2ccc(F)c(C(F)(F)F)c2)C(=O)N1Cc1ccc(F)cc1Nc1ccc(Nc2ccc(Cl)nn2)cc1 [Example 10, 1-{2-[4-(6-chloropyridazin-3-ylamino)phenylamino]-4-fluorobenzyl}-3-(4-fluoro-3-trifluoromethylphenyl)-5,5-dimethyl-imidazolidine-2,4-dione] | – | 7 nM | – | 34 nM
10 | CC1(C)C(=O)N(c2ccc(F)c(C(F)(F)F)c2)C(=O)N1Cc1ccc(F)cc1Nc1ccc(N2CCNCC2=O)cc1 [Example 13, 1-{4-fluoro-2-[4-(2-oxopiperazin-1-yl)phenylamino]benzyl}-3-(4-fluoro-3-trifluoromethylphenyl)-5,5-dimethylimidazolidine-2,4-dione] | – | – | – | 125 nM
11 | CC1(C)C(=O)N(c2ccc(F)c(C(F)(F)F)c2)C(=O)N1Cc1ccc(F)cc1Nc1ccc(N2CCC(O)CC2)cc1 [Example 14, 1-{4-fluoro-2-[4-(4-hydroxypiperidin-1-yl)phenylamino]benzyl}-3-(4-fluoro-3-trifluoromethylphenyl)-5,5-dimethylimidazolidine-2,4-dione] | – | – | – | 9 nM
12 | CC1(C)C(=O)N(c2ccc(F)c(C(F)(F)F)c2)C(=O)N1Cc1ccc(F)cc1Nc1ccc(C2NC(=O)NC2=O)cc1 (centres unmarked) [Example 15, 1-{2-[4-(2,5-dioxoimidazolidin-4-yl)phenylamino]-4-fluorobenzyl}-3-(4-fluoro-3-trifluoromethylphenyl)-5,5-dimethylimidazolidine-2,4-dione] | – | – | – | 60 nM
13 | CC1(C)C(=O)N(c2ccc(F)c(C(F)(F)F)c2)C(=O)N1Cc1ccc(F)cc1Nc1ccc(N2CCNC2=O)cc1 [Example 16, 1-{4-fluoro-2-[4-(2-oxoimidazolidin-1-yl)phenylamino]benzyl}-3-(4-fluoro-3-trifluoromethylphenyl)-5,5-dimethylimidazolidine-2,4-dione] | – | – | – | 23 nM
14 | CC1(C)C(=O)N(c2ccc(F)c(C(F)(F)F)c2)C(=O)N1Cc1ccc(F)cc1Nc1ccc(OC2CCOCC2)cc1 [Example 18, 1-{4-fluoro-2-[4-(tetrahydropyran-4-yloxy)phenylamino]benzyl}-3-(4-fluoro-3-trifluoromethylphenyl)-5,5-dimethylimidazolidine-2,4-dione] | – | – | – | 93 nM
